Experimental data as given in ChEMBL document CHEMBL5325462, “Regioselective synthesis and in vitro cytotoxicity evaluation of 3-thiooxindole derivatives: Tubulin polymerization inhibition and apoptosis inducing studies” (Bioorg Med Chem, 2023).

How the values were obtained:
[1] = Cytotoxicity against rat NRK cells assessed as inhibition of cell growth measured after 72 hrs by MTT assay; assay type: toxicity, cell-based
Cell membrane [2] = experiment: Induction of mitochondrial membrane potential loss in human HCT-116 cells assessed as polarized cells at 13.28 uM incubated for 72 hrs by JC-1 staining based flow cytometry analysis (reference value: 99.6 %); assay type: subcellular
HCT-116 [3] = experiment: Inhibition of colony formation in human HCT-116 cells measured after 14 days; assay type: functional, cell-based; details: dose 3.32-13.28 µM, time 14.0 day
HCT-116 [4] = experiment: Induction of apoptosis in human HCT-116 cells assessed as early apoptotic cells at 6.64 uM incubated for 24 hrs by Annexin V-FITC/PI staining based flow cytometry analysis (Rvb= 0.2%); assay type: functional
Cell membrane [5] = experiment: Induction of mitochondrial membrane potential loss in human HCT-116 cells assessed as polarized cells at 3.32 uM incubated for 72 hrs by JC-1 staining based flow cytometry analysis (reference value: 99.6 %); assay type: subcellular
HCT-116 [6] = experiment: Induction of apoptosis in human HCT-116 cells assessed as viable cells at 6.64 uM incubated for 24 hrs by Annexin V-FITC/PI staining based flow cytometry analysis (Rvb= 99.7%); assay type: functional; details: read-out: Activity
HCT-116 [7] = experiment: Induction of nuclear morphological changes in human HCT-116 cells assessed as change in nuclear shape measured after 48 hrs by DAPI-staining based fluorescence microscopic analysis; assay type: functional, cell-based
HCT-116 [8] = experiment: Induction of apoptosis in human HCT-116 cells assessed as early apoptotic cells at 3.32 uM incubated for 24 hrs by Annexin V-FITC/PI staining based flow cytometry analysis (Rvb= 0.2%); assay type: functional
Cell membrane [9] = experiment: Induction of mitochondrial membrane potential loss in human HCT-116 cells assessed as depolarized cells at 6.64 uM incubated for 72 hrs by JC-1 staining based flow cytometry analysis (reference value: 0.4 %); assay type: subcellular
HCT-116 [10] = experiment: Induction of apoptosis in human HCT-116 cells assessed as late apoptotic cells at 3.32 uM incubated for 24 hrs by Annexin V-FITC/PI staining based flow cytometry analysis (Rvb= 0.1%); assay type: functional
HCT-116 [11] = experiment: Induction of apoptosis in human HCT-116 cells assessed as late apoptotic cells at 6.64 uM incubated for 24 hrs by Annexin V-FITC/PI staining based flow cytometry analysis (Rvb= 0.1%); assay type: functional
HCT-116 [12] = experiment: Induction of apoptosis in human HCT-116 cells assessed as necrotic cells at 3.32 uM incubated for 24 hrs by Annexin V-FITC/PI staining based flow cytometry analysis (Rvb= 0.0%); assay type: functional
HCT-116 [13] = experiment: Cell cycle arrest in human HCT-116 cells assessed as accumulation of cells in G2/M phase at 3.32 uM measured after 48 hrs by PI staining based flow cytometry method (reference value: 6.7%); assay type: functional
HCT-116 [14] = experiment: Cell cycle arrest in human HCT-116 cells assessed as accumulation of cells in G2/M phase at 13.28 uM measured after 48 hrs by PI staining based flow cytometry method (reference value: 6.7%); assay type: functional

Activity (Cell membrane [2]): 86.7%
Activity (Cell membrane [5]): 97%
Activity (Cell membrane [9]): 5.9%
Compound: CC(C)(C)S(=O)(=O)NCC1(Sc2nc3ccccc3[nH]2)C(=O)N(Cc2ccc(Br)cc2)c2ccccc21 (centres undefined)
IC50 at 72 h [1]: 38.4 µM
inhibition (HCT-116 [3]): Dose-Dependent Effect
Activity (HCT-116 [4]): 21.4%
viability at 6.64 µM (HCT-116 [6]): 9.9%
Activity (HCT-116 [7]): Dose-Dependent Effect
Activity (HCT-116 [8]): 41.8%
Activity (HCT-116 [10]): 53.4%
Activity (HCT-116 [11]): 58.4%
Activity (HCT-116 [12]): 0.3%
Activity (HCT-116 [13]): 11.8%
Activity (HCT-116 [14]): 18.4%
